For `CCCN1CCN(Cc2ccc3c(c2)-c2[nH]nc(-c4ccsc4)c2C3)CC1`, the melting point lay in the range of 185 to 187 °C.
The compound `CCCn1nc(C2CC2)c(C(=O)O)c1Cc1ccc(-c2ccccc2S(=O)(=O)NC(=O)c2ccccc2)cc1` showed a melting point of 230 to 232 °C.
With `COC(=O)CCCC#Cc1cc(Cl)ccc1NS(=O)(=O)c1c(C)noc1C` the figure was 107 to 109 °C; with `Cc1cc(-c2nncc3c(C(C)(C)C)c(OCc4ncn(C)n4)nn23)no1`, 161 to 164 °C; with `COc1ccc(-c2c3ccccc3cc3sc4ccccc4c23)cc1I`, 274 to 275 °C.
With `CCCSc1nc(C)c(CO)n1-c1ccccc1Cl` the figure was 98 to 101 °C; with `N#Cc1cnc2sc(-c3ccc(CN)cc3)cc2c1Nc1ccc2[nH]ccc2c1`, more than 260 °C.
In the case of `CC1(C)CC(NC(=O)CCC(=O)NC2CC(C)(C)N(OC3CCCCC3)C(C)(C)C2)CC(C)(C)N1OC1CCCCC1`, the melting point was 230 to 234 °C.
With `Cn1ccnc1-c1ccc(-c2cnc([C@H](Cc3ccccn3)N(C=O)OC(C)(C)C)n2C)cc1` the figure was 160 to 163 °C; with `COc1cc(C(C#Cc2cnc(N)nc2N)OC)cc(OC)c1OC` (centres undefined), 184 to 186 °C.
With `CCC(C)(C)N=C(NC#N)Nc1cc(F)cc(Cl)c1` the figure was 130 to 131 °C; with `CN1CCC(C2(O)c3ccccc3Oc3ccc(Cl)cc32)CC1` (centres undefined), 206 to 208 °C; with `CNc1nc(-c2cccc(-c3ccc4nccn4c3)c2)c2cc(OC)c(OC)cc2n1`, 237 to 239 °C.
With `Cc1c(-c2ccccc2)c(Cl)nc2ccccc12` the figure was 88 to 90 °C.
Compound `O=C(NCc1ccc(Cl)cc1)c1cn2c(CCCO)cc3cc(CN4CCOCC4)cc(c1=O)c32` displayed a melting point of 171 to 174 °C.
With `CCCCN(CCCC)c1ccc(C=Cc2ccc(C=CC3=C(C#N)C(=C(C#N)C#N)OC3(C)C)cc2)c(OC)c1` the figure was 258 to 260 °C.
With `O=C(CN1CCN(CCSc2nc3cccc(C(F)(F)F)c3o2)CC1)Nc1c(C(F)(F)F)cc(OCc2ccccc2)cc1C(F)(F)F` the figure was 156 to 158 °C; with `COc1cc(C(N)=O)c([N+](=O)[O-])cc1OC`, 197 °C.
With `Cc1ccc(N2C(=O)C(O)=C(C(=O)c3ccc(C(C)C)cc3)C2c2ccc(OC3CCOCC3)cc2)nn1` (centres undefined) the figure was 275 °C; with `COc1cnn(C)c(=O)c1-c1c(C)cc(C)cc1C`, 186 to 192 °C.
For the compound `CC1CCc2c(N3CCN(C)CC3)c(F)cc3c(=O)c(C(=O)O)cn1c23` (centres undefined), the melting point was 262 to 263 °C.
`CC(C)(C)c1cc(CCc2ccccc2NC(=O)NC2CCN(Cc3ccc(C(F)(F)F)cc3C(F)(F)F)CC2)cc(C(C)(C)C)c1O`: the melting point was in the range of 156 to 157 °C.
With `Cc1cc(Nc2ccnc(Nc3ccc(S(=O)(=O)N(CCNC(=O)OC(C)(C)C)C4CCN(C(=O)OC(C)(C)C)CC4)cc3)n2)ccc1F` the figure was 242 to 244 °C; with `CN1CN(C(=O)c2c(F)cccc2F)C(=O)N(c2ccc(Cl)cc2)C1`, 140 °C; with `CN1CCC(OC2c3ccccc3CCn3c2nc(-c2ccccc2)c3I)CC1` (centres undefined), 153 °C.
With `Cn1cc(C(=O)NCc2ccc(Cl)cc2)c(=O)c2cc(CN3CCC[C@@H]3[C@@H](O)c3ccccc3)sc21` (relative stereo) the figure was 158 to 162 °C.
In turn, `CC(=O)NNC(=O)Nc1ccccc1-c1ccc(C)cc1` came in with a melting point of 102 to 104 °C.
With `CCN(CC(=O)O)c1ccc(OCC(C)(C)C)c(C#N)c1` the figure was 78 °C.
With `COc1ccc2[nH]c(C(=O)C34CC5CC(CC(C5)C3)C4)cc2c1` the figure was 229 to 231 °C.
With `O=Cc1cccn1-c1ccccc1[N+](=O)[O-]` the figure was 119 to 122 °C.
As for `COc1ccc(OC)c(S(=O)(=O)NC(=O)C(C)Oc2cc(-n3nc(C)n(C(F)F)c3=O)c(F)cc2Cl)c1` (centres undefined), the melting point lay in the range of 168 to 172 °C.
With `O=c1c2c(Cc3ccccc3)n[nH]c2c2cccnc2n1-c1cccc(OC(F)(F)F)c1` the figure was 249 to 251 °C; with `COCCN1CCN(Cc2ccc3c(c2)-c2[nH]nc(-c4ccsc4)c2C3)CC1`, 140 to 142 °C.
With `CC(=O)NCc1nc(NCCCOc2cccc(CN3CCCCC3)c2)n(C)n1` the figure was 123 °C; with `CCN(CC)CCNC(=O)c1cnc2ccc(I)cc2c1F`, 88 to 90 °C; with `Cc1cnc(Cn2ncc(-c3ccc(S(C)(=O)=O)cc3)c(-c3ccc(F)cc3)c2=O)s1`, 114 to 116 °C.
With `O=C(OCc1ccccc1)N1CCN2C(=O)OCC2C1` (racemic) the figure was 85.5 to 86.5 °C; with `COc1ccc2cccc(CCNC(C)=O)c2c1`, 108 °C.
The compound `COc1ccc(S(=O)(=O)N2C(=O)C(c3ccccc3OC)(N3C[C@H](OCC(=O)NC(C)(CO)CO)C[C@H]3C(=O)N(C)C)c3cc(Cl)ccc32)c(OC)c1` (some centres undefined) returned a melting point of 154 °C.
As to `CC(CCc1ccc(Cl)cc1)(Cn1ccnc1)Sc1cc(Cl)ccc1Cl` (centres undefined), the melting point turned out to be 150 °C.
As for `CC(=O)Nc1sccc1C(=O)c1ccccc1F`, the melting point worked out at 144 °C.
With `C=CCC(CC=C)(C(=O)O)S(=O)(=O)c1ccc(OC)cc1` the figure was 114 to 116 °C; with `Cc1ccnc(Nc2nc(-c3c[nH]nc3C(O)c3ccccc3)cs2)n1` (centres undefined), 250 °C; with `O=C1NC(=S)SC1=Cc1cccc(Cl)c1Cl`, 203 to 204 °C.
With `COC(=O)COc1ccc(CC(C)NCC(O)c2cccc(C(F)(F)F)c2)cc1C` (centres undefined) the figure was 75 to 79 °C.
With `COc1coc2ccc(OCCCCCCN3CCC(O)CC3)cc2c1=O` the figure was 124 to 125 °C; with `CCN(CC)C(=O)c1ccc2ccccc2c1-c1ccsc1`, 71 to 73 °C.
Consider `OCC1Cc2sccc2CN1` (racemic), for which the melting point worked out at 110 °C.
With `CC(=O)c1cccc(NC=O)c1` the figure was 100 to 102 °C.
With `CCOC(=O)C(=O)Nc1c([N+](=O)[O-])sc2ccc(Cl)cc12` the figure was 126 to 128 °C; with `CC1CCCN1c1ccc(C#N)c2occc12` (centres undefined), 82 to 83 °C.
With `O=[N+]([O-])c1c(-c2cc(Cl)cc(Cl)c2)[nH]c2c(Cl)cc(Cl)cc12` the figure was 272 to 273 °C; with `Cc1cc(C)nc(NC(=O)NS(=O)(=O)c2cccc3c2CCCC3)n1`, 152 to 155 °C.
In turn, `O=C(O)CCNS(=O)(=O)c1ccc(N2CCC(c3ccccc3)CC2)cc1` registered a melting point of 145 to 147 °C.
Turning to `OC1C=C(c2ccc(C(F)(F)F)cc2)CN(Cc2ccccc2)C1` (centres undefined), the melting point lay within 88 to 90 °C.
With `Nc1ccccc1N1CCN(CCCCn2c(=O)[nH]c(=O)c3ccccc32)CC1` the figure was 121 °C.
In the case of `CC(=O)c1c(N)ncn1C1c2ccccc2CC1(C)C` (centres undefined), the melting point was 174 to 175 °C.
With `O=C(Nc1cccc(C(F)(F)F)c1)c1cccnc1NCc1ccncc1` the figure was 152 to 153 °C; with `C=CCOc1cccc2oc(C(=O)OCC)cc(=O)c12`, 122 to 123 °C.
With `Cc1c(CC(=O)O)c2ccccc2c(=O)n1Cc1ccc(Cl)c(Cl)c1` the figure was 218 to 220 °C.
With `COc1c(-c2cc3c(s2)CCCC3N=[N+]=[N-])ccc2c(=O)c(C(=O)O)cn(C3CC3)c12` (centres undefined) the figure was 134 to 136 °C.
Compound `Cc1c(-c2ccc(N3CCOC3=O)cc2)nc2n1CCc1ccccc1C2OC1CCN(C)CC1` (centres undefined) gave a melting point of 214 °C.
With `CS(=O)(=O)c1ccc(-c2cnn(CC(=O)c3ccc(Cl)cc3)c(=O)c2-c2ccc(F)cc2)cc1` the figure was 186 to 188 °C; with `COc1ccc(Br)c(C(=O)N2CCN(S(=O)(=O)c3ccccc3F)CC2)c1`, 167 °C.
With `CC(=O)Nc1c(C(N)=O)nnn1Cc1ccccc1Cl` the figure was 140 to 142 °C; with `O=C(NCc1ccc(Cl)cc1)c1cnc2sc(C#CCO)cc2c1O`, 233 to 236 °C.
With `O=[N+]([O-])c1ccccc1Nc1ccc(I)cc1` the figure was 171 to 172 °C; with `COc1cc(OC)c(C2CCN(C)CC2O)c(O)c1C(C)=O` (centres undefined), 216 °C; with `O=S(=O)(c1ccc(Cl)cc1)N1CCCC1c1ccccc1F` (racemic), 134 °C.
In the case of `COC(=O)c1ccc(C=C2Cc3ccccc3C2=O)cc1`, the melting point lay within 194 to 198 °C.
With `CCCCn1c(=O)n(CC)c(=O)c2c1ncn2S(=O)(=O)c1ccc(C)cc1` the figure was 135 to 139 °C; with `CNC(=O)c1cc2c(nc(C)n2C)c2c1C[C@@H](O)[C@@H](c1ccccc1)N2`, 265 to 268 °C.
With `O=C(O)c1cccc(COc2cccc(OCc3ccc4ccccc4n3)c2)c1` the figure was 149 to 151 °C; with `COC(=O)c1cc2cc(OC)c(OC)cc2nc1N`, 227 to 229 °C; with `O=C(Cc1cccc(O)c1)NNC(=O)c1c(OCc2ccccc2)cc(OCc2ccccc2)cc1OCc1ccccc1`, 154 to 155 °C.
With `CCOC(=O)C(C1c2ccccc2Oc2ccccc21)[N+](=O)[O-]` (centres undefined) the figure was 89 to 91 °C; with `CC(C)(C)OC(=O)Nc1ccncc1C(=O)O`, 260 °C.
In the case of `CNS(=O)(=O)c1ccc(-c2cnc3[nH]cc(C(=O)C(C)(C)C)c3n2)cc1`, the melting point lay within 278 to 280 °C.
With `O=C(NC(=O)c1cc(F)c(F)cc1Cl)Nc1cccnc1N1CCC(C(=O)NCCO)CC1` the figure was 203 °C; with `Cc1c(O)ccc2c(=O)c(-c3ccc4c(c3)OCO4)coc12`, 270 to 272 °C.
Consider `CCOC(=O)c1cn(CC)c2nc(C=O)c(O)cc2c1=O`, for which the melting point lay within 243 to 245 °C.
With `CNC(=O)C(=O)c1ccccc1COc1ccccc1` the figure was 78 °C; with `Cc1nc(C=CNC(=O)c2cccc(C(F)(F)F)c2)n[nH]1`, 153 to 154 °C.
With `CNC(=O)c1cccc(Nc2nc(Nc3ccc4c(c3)CCCC(=O)N4C)ncc2Cl)c1` the figure was 215 to 217 °C.

As a reminder, the melting point is the temperature, or range, at which the solid turns liquid.
